ChEMBL document CHEMBL5055665, “Discovery of the Triazolo[1,5-a]Pyrimidine-Based Derivative WS-898 as a Highly Efficacious and Orally Bioavailable ABCB1 Inhibitor Capable of Overcoming Multidrug Resistance” (J Med Chem, 2021)
Calls of active or inactive are those of the source. The calls are words filed in the database; no cut-off is given here.

Legend:
SW-620 [1] = assay: Reversal of resistance to paclitaxel-induced cytotoxicity in human SW-620/AD300 cells assessed as reduction in paclitaxel IC50 at 2 uM preincubated for 4 hrs followed by paclitaxel addition and measured after 72 hrs by MTT assay (reference value: 4.23 +/- 0.50 uM); assay type: functional, cell-based
SW-620 [2] = assay: Reversal of resistance to paclitaxel-induced cytotoxicity in human SW-620/AD300 cells assessed as reversal fold at 1 uM preincubated for 4 hrs followed by paclitaxel addition and measured after 72 hrs by MTT assay relative to paclitaxel; assay type: functional; settings: time 76 hrs
SW-620 [3] = assay: Reversal of resistance to paclitaxel-induced cytotoxicity in human SW-620 cells assessed as reduction in paclitaxel IC50 at 2 uM preincubated for 4 hrs followed by paclitaxel addition and measured after 72 hrs by MTT assay (reference value: 7.69 +/- 2.78 nM); assay type: functional, cell-based
KB 3-1 = assay: Reversal of resistance to paclitaxel-induced cytotoxicity in human KB 3-1 cells assessed as reduction in paclitaxel IC50 at 2 uM preincubated for 4 hrs followed by paclitaxel addition and measured after 72 hrs by MTT assay (reference value: 4.54 +/- 1.59 nM); assay type: functional, cell-based
HEK293 [4] = assay: Reversal of resistance to paclitaxel-induced cytotoxicity in human HEK293/pcDNA3.1 cells assessed as reduction in paclitaxel IC50 at 2 uM preincubated for 4 hrs followed by paclitaxel addition and measured after 72 hrs by MTT assay (reference value: 1.93 +/- 0.06 nM); assay type: functional, cell-based
HEK293 [5] = assay: Reversal of resistance to paclitaxel-induced cytotoxicity in human HEK293/ABCB1 cells assessed as reduction in paclitaxel IC50 at 1 uM preincubated for 4 hrs followed by paclitaxel addition and measured after 72 hrs by MTT assay (reference value: 91.40 +/- 23.32 nM); assay type: functional, cell-based
HEK293 [6] = assay: Reversal of resistance to paclitaxel-induced cytotoxicity in human HEK293/ABCB1 cells assessed as reduction in paclitaxel IC50 at 2 uM preincubated for 4 hrs followed by paclitaxel addition and measured after 72 hrs by MTT assay (reference value: 91.40 +/- 23.32 nM); assay type: functional, cell-based
[7] = target: ATP-dependent translocase ABCB1 (Homo sapiens, UniProt P08183); assay: Activation of ABCB1 ATPase activity (unknown origin) assessed as fold stimulation of ATP hydrolysis at 0 to 20 uM using Mg-ATP as substrate incubated for 20 mins by spectrophotometric method; settings: dose 0-20 µM
SW-620 [8] = assay: Antitumor activity against human SW-620/AD300 cells xenografted in BALB/c nude mouse assessed as tumor growth inhibition at 30 mg/kg/day, ig administered for 21 days; assay type: functional; design: scale not given: the % may be the effect or the level left; settings: time 21 day
Mus musculus [9] = assay: Toxicity in BALB/c mouse xenografted with human SW-620/AD300 cells assessed as change in body weight at 30 mg/kg/day, ig administered 21 days in presence of paclitaxel; assay type: organism-based; settings: in vivo, po, 504 h, time 21 day
Mus musculus [10] = assay: Toxicity in BALB/c mouse xenografted with human SW-620/AD300 cells assessed as mortality at 30 mg/kg/day, ig administered 21 days in presence of paclitaxel; assay type: organism-based; settings: in vivo, po, 504 h, time 21 day
SW-620 [11] = assay: Antitumor activity against human SW-620/AD300 cells xenografted in BALB/c nude mouse assessed as increase in tumor cell apoptosis at 30 mg/kg/day, ig administered for 21 days in presence of paclitaxel by TUNEL staining based fluorescence microscopy; assay type: functional, organism-based; settings: time 21.0 day
Mus musculus [12] = assay: Hepatotoxicity in BALB/c mouse xenografted with human SW-620/AD300 cells at 30 mg/kg/day, ig administered for 21 days in presence of paclitaxel; assay type: toxicity, organism-based; settings: in vivo, po, 504 h, time 21 day
[13] = Half life in Sprague-Dawley rat at 10 mg/kg, iv measured up to 24 hrs by LC-MS/MS analysis; assay type: ADME, organism-based; settings: in vivo
[14] = AUCinfinity in Sprague-Dawley rat at 10 mg/kg, iv measured up to 24 hrs by LC-MS/MS analysis; assay type: ADME, organism-based; design: dose 10 mg/kg, time < 24 hrs, route iv; settings: in vivo
[15] = MRTinfinity in Sprague-Dawley rat at 10 mg/kg, iv measured up to 24 hrs by LC-MS/MS analysis; assay type: ADME, organism-based; settings: in vivo

Chain of ATP-dependent translocase ABCB1 (P08183 whole entry): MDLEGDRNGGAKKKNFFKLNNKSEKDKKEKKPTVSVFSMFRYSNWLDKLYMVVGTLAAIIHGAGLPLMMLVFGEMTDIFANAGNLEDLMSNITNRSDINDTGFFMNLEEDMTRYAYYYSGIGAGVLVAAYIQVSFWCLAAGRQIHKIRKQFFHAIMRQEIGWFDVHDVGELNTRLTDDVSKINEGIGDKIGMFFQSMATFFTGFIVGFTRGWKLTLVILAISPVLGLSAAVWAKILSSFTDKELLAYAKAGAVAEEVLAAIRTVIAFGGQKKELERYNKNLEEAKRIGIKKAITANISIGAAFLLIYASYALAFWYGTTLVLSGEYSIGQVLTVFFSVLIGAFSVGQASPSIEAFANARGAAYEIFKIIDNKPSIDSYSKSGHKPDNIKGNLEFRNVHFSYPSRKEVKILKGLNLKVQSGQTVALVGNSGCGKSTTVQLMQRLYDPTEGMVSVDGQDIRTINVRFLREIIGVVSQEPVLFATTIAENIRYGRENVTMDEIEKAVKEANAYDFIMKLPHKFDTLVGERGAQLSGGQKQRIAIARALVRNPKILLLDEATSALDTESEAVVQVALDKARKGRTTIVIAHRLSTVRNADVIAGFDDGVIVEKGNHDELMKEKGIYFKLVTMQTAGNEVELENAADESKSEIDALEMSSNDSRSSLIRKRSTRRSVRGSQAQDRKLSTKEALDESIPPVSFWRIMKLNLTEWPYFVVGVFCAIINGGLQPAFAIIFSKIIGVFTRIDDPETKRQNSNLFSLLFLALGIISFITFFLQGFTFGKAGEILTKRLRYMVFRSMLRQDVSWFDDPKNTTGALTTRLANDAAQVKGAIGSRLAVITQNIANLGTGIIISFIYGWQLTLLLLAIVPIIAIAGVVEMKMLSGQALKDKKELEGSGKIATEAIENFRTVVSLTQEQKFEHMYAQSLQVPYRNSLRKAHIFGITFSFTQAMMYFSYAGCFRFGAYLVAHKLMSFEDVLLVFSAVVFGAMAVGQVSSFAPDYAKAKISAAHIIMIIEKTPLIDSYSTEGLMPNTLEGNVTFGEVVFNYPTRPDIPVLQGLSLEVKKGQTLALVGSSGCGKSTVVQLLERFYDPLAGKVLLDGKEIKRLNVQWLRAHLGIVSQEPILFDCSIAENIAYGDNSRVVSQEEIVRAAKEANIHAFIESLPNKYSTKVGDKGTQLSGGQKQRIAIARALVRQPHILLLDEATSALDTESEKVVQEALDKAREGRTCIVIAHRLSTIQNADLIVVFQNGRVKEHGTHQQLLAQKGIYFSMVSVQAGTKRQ

Question: Which IC50 (SW-620 [1]) does the source give for `Cc1cc(Nc2ccc(C(=O)/C=C/c3ccc4ccccc4c3)cc2)n2nc(SCc3nc4ccccc4[nH]3)nc2n1` here?
Answer: 5 nM

Question: And the “fold change (FC)” value (SW-620 [2])?
Answer: 150.38

Question: What about the IC50 (SW-620 [3]) of the same compound?
Answer: 6.98 nM

Question: And the IC50 (KB 3-1)?
Answer: 3.53 nM

Question: What about the IC50 (HEK293 [4]) of the same compound?
Answer: 1.31 nM

Question: And the IC50 (HEK293 [5])?
Answer: 9.21 nM

Question: And the IC50 (HEK293 [6])?
Answer: 3.68 nM

Question: What about the “fold change (FC)” value [7] of the same compound?
Answer: 4.68

Question: And the Activity (SW-620 [8])?
Answer: 30%

Question: And the Activity (Mus musculus [9])?
Answer: Non-Toxic

Question: And the Activity (Mus musculus [10])?
Answer: Non-Toxic

Question: What about the Activity (SW-620 [11]) of the same compound?
Answer: Active

Question: What about the Activity (Mus musculus [12]) of the same compound?
Answer: Non-Toxic

Question: What about the half-life [13] of the same compound?
Answer: 85.8 min

Question: What about the AUC(0-inf) [14] of the same compound?
Answer: 9450 ng·h/mL

Question: What about the MRT inf [15] of the same compound?
Answer: 6.42 min
